As usually defined, the IC50 is the concentration at which inhibition is half-maximal.

The structures appear in SMILES notation.

For one data set, the target named is human Nav1.5 (Homo sapiens (Human), UniProt Q14524). As to the kind of experiment: Human Nav1.5 inhibitory activity evaluation (automated patch clamp QPatch16X, HEK293 cells stably expressing human Nav1.5). It is filed as cell-based. The note with it: HEK293 cells stably expressing human Nav1.5, automated patch clamp QPatch16X. An outline of the steps: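 IC50 derived from concentration-response of inward current at the 20th of 20 action-potential-mimicking pulses (holding −80 mV, leak corrected with −100 mV step). HEK293 cells stably expressing human Nav1.5, room temperature, extracellular pH 7.4, intracellular CsF-based pH 7.3, 0.1% DMSO.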
A general note: Patch clamp records ionic current or voltage across a cell membrane.

In the next data set the target is human Nav1.7 (Homo sapiens (Human), UniProt Q15858). As to the kind of experiment: Human Nav1.7 inhibitory activity evaluation (automated patch clamp QPatch16X, HEK293A cells stably expressing human Nav1.7 and human Navβ1). The format is cell-based. The note with it: HEK293A cells stably expressing human Nav1.7 and human Navβ1, automated patch clamp QPatch16X. An outline of the steps: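 IC50 calculated from the concentration-response of inward current evoked by the second −10 mV, 50 ms depolarisation, which follows a 15 s conditioning step at roughly 30-40% inactivation and a 100 ms −120 mV interval. Cells: HEK293A expressing human Nav1.7/Navβ1, automated patch clamp, room temperature, 0.1% DMSO final.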
human Nav1.7, sequence (Q15858 whole entry): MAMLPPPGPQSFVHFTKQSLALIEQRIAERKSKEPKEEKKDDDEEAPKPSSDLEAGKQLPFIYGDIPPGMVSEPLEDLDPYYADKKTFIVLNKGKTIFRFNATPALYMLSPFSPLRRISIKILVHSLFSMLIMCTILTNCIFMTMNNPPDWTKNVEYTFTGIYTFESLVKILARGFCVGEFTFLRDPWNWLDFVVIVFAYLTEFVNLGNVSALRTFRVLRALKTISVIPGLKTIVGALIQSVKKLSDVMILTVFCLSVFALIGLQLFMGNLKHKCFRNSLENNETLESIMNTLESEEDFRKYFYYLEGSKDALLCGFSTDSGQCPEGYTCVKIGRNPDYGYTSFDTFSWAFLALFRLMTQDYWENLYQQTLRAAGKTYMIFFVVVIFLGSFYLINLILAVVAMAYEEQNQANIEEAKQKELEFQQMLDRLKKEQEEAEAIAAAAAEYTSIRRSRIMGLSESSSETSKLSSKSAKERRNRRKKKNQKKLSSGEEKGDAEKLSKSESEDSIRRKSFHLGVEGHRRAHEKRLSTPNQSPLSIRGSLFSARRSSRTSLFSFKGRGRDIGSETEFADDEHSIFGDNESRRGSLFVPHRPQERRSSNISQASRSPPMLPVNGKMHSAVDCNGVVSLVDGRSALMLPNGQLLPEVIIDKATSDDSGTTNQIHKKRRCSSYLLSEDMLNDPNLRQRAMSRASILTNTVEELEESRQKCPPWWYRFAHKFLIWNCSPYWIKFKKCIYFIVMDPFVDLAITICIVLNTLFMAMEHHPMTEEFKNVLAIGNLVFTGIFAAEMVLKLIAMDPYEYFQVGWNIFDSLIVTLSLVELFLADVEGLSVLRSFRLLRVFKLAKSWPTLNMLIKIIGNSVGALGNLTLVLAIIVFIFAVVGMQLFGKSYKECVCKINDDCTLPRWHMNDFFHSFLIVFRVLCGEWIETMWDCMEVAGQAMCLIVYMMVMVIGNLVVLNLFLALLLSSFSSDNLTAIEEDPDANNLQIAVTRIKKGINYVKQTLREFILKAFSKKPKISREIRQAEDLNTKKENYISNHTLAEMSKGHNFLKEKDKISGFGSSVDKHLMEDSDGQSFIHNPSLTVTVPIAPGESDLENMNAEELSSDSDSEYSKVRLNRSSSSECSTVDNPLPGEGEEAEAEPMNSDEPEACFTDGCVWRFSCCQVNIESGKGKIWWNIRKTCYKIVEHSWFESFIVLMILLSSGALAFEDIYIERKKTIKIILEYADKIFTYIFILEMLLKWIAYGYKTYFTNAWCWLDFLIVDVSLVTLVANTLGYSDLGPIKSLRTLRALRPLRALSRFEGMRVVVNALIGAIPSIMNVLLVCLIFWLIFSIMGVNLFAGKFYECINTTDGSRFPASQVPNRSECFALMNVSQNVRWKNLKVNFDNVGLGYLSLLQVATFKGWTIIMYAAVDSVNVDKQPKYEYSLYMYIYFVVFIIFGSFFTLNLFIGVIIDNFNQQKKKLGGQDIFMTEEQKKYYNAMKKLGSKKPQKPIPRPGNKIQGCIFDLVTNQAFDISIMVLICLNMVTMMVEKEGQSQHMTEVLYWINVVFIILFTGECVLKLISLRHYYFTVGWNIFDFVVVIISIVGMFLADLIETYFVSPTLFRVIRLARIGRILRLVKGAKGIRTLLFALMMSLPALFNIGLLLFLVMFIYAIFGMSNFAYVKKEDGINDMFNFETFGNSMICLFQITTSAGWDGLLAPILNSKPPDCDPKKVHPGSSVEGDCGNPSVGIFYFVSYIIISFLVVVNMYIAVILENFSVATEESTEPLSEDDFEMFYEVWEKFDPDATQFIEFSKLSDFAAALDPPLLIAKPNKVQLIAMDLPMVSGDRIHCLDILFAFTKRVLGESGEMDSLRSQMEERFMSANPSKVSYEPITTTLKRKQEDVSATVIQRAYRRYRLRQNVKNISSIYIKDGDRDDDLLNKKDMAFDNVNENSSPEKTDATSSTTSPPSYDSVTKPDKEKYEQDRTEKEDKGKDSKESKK
human Nav1.7, sequence (Q07699 19-218 partner): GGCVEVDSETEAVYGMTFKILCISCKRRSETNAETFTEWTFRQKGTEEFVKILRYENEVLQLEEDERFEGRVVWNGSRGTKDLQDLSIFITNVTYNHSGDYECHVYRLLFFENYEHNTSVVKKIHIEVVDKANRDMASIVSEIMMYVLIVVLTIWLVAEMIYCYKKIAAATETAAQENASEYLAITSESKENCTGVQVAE

human Nav1.5, sequence (Q14524 whole entry): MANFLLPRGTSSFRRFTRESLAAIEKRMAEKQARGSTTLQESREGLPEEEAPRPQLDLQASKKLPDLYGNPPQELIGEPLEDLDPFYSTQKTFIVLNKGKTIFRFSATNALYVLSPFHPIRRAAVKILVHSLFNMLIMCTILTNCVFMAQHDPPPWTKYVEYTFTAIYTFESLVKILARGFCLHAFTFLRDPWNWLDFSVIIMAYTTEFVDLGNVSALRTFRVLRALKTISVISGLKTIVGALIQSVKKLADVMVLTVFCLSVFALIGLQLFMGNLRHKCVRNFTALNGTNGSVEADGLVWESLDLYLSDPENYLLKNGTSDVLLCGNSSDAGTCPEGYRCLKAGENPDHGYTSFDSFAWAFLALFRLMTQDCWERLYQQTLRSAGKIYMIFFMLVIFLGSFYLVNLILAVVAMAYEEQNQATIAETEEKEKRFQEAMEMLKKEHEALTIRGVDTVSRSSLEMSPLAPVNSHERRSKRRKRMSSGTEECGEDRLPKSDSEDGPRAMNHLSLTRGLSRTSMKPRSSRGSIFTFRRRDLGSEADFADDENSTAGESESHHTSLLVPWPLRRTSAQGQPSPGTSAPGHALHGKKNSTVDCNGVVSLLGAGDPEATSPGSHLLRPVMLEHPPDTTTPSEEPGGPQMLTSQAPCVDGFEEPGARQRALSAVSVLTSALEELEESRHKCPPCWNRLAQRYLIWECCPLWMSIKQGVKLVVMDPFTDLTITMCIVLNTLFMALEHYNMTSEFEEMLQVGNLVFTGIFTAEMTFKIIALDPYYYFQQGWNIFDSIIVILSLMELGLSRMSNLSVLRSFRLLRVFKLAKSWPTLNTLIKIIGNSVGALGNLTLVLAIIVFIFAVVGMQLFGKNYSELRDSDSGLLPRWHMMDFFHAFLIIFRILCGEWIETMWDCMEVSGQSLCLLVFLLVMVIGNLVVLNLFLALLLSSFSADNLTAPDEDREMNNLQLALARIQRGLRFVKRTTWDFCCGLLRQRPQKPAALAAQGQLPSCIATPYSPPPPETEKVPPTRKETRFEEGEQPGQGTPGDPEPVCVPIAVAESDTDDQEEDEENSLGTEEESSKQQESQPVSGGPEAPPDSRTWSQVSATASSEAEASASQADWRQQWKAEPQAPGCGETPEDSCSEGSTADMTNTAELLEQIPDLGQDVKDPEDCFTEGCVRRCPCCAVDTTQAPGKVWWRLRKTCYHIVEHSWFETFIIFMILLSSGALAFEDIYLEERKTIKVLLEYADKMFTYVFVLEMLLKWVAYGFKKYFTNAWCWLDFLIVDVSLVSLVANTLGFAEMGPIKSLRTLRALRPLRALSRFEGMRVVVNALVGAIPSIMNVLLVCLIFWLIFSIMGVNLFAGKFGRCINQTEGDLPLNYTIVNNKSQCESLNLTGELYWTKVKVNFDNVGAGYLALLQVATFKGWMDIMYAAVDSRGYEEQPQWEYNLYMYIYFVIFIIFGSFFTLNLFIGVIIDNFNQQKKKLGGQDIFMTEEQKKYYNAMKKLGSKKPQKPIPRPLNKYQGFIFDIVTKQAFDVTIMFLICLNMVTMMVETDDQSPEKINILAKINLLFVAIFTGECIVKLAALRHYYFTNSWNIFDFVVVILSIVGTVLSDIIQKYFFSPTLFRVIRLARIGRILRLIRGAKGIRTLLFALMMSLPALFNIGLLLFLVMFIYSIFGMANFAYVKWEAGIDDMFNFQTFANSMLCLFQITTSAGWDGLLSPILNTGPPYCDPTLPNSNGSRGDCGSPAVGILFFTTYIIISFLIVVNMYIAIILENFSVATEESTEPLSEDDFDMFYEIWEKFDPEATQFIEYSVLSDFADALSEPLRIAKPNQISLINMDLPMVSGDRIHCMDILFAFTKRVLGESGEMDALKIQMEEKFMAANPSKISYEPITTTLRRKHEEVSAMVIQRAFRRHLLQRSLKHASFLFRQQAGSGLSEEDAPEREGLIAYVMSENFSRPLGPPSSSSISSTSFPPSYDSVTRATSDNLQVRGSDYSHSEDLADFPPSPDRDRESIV

Regarding `CN1Cc2nc(C(=O)N[C@H]3COc4ccccc4C3)cn2CC1CCC1CCCC1` (stereo partly shown) [Example 52], the IC50 on human Nav1.5 is 1000 to 3000 nM; at human Nav1.7, below 1000 nM.

As for `O=C(N[C@H]1COc2ccccc2C1)c1cn2c(n1)CNC(CCCc1ccccc1)C2` (stereo partly shown) [Example 55], the results for the IC50 against human Nav1.5 and against human Nav1.7 were 1000 to 3000 nM and below 1000 nM, respectively.

Regarding `CN1Cc2nc(C(=O)NC3COc4ccccc4C3)cn2CC1c1ccccc1` (stereo not shown) [Example 57], the half-maximal inhibitory concentration (IC50) at human Nav1.5 and against human Nav1.7 was below 1000 nM in each case.

Consider `CN1Cc2nc(C(=O)NCCc3ccccc3)cn2CC1c1ccccc1` (stereo not shown) [Example 58], for which the IC50 on human Nav1.5 is at least 3000 nM; against human Nav1.7, below 10000 nM.

For the compound `O=C(N[C@H]1COc2ccccc2C1)c1cn2c(n1)CNC(C1CCCC1)C2` (stereo partly shown) [Example 59], the IC50 against human Nav1.5 was at least 3000 nM; against human Nav1.7 it was below 10000 nM.

Take `CN1Cc2nc(C(=O)NCCc3cccc(N4CCOCC4)c3)cn2CC1c1ccccc1` (stereo not shown) [Example 62]: the values for the IC50 on human Nav1.5 and on human Nav1.7 were at least 3000 nM and below 10000 nM, respectively.

Take `O=C(N[C@H]1COc2ccccc2C1)c1nc2n(c1-c1ccccc1)CCOC2` [Example 64]: the half-inhibitory concentration (IC50) at human Nav1.5 was below 1000 nM; against human Nav1.7, below 10000 nM.

Take `COc1cccc(-c2c(C(=O)N[C@H]3COc4ccc(Cl)cc4C3)nc3n2CCOC3)n1` [Example 65]: the IC50 against human Nav1.5 and at human Nav1.7 was below 1000 nM each time.

Consider `O=C(N[C@H]1COc2ccc(Cl)cc2C1)c1nc2n(c1-c1ccccn1)CCOC2` [Example 66], for which the IC50 at human Nav1.5 is below 1000 nM; against human Nav1.7, below 10000 nM.

On to `O=C(N[C@H]1COc2ccc(C(F)(F)F)cc2C1)c1nc2n(c1-c1ccccn1)CCOC2` [Example 67], for which the IC50 against human Nav1.5 and on human Nav1.7 was below 1000 nM in each case.

As for `Cc1ccccc1C1CCn2nc(C(=O)N[C@H]3COc4ccccc4C3)cc2C1` (stereo partly shown) [Example 68], the results for the half-inhibitory concentration (IC50) on human Nav1.5 and at human Nav1.7 were at least 3000 nM and below 10000 nM, respectively.

Consider `O=C(N[C@H]1COc2ccc(Br)cc2C1)c1cc2n(n1)CCC(c1ccccc1F)O2` (stereo partly shown) [Example 71], for which the IC50 at human Nav1.5 and against human Nav1.7 was below 1000 nM in each case.

For `N#Cc1ccc2c(c1)C[C@@H](NC(=O)c1cc3n(n1)CCC(c1ccccc1C#N)O3)CO2` (stereo partly shown) [Example 72], the results for the IC50 against human Nav1.5 and against human Nav1.7 were at least 3000 nM and below 1000 nM, respectively.

Turning to `COc1ncccc1C1CCn2nc(C(=O)N[C@H]3COc4ccc(C#N)cc4C3)cc2O1` (stereo partly shown) [Example 75], the half-maximal inhibitory concentration (IC50) against human Nav1.5 is at least 3000 nM; against human Nav1.7, below 1000 nM.

Turning to `CCc1ccc2c(c1)C[C@@H](NC(=O)c1cc3n(n1)CCC(c1ccccc1F)O3)CO2` (stereo partly shown) [Example 76], the figures for the 50% inhibitory concentration (IC50) against human Nav1.5 and against human Nav1.7 were at least 3000 nM and below 1000 nM, respectively.

Turning to `O=C(NC1COc2cccc(Cl)c2C1)c1cc2n(n1)CCC(c1ccccc1)O2` (stereo not shown) [Example 77], the concentration for half-maximal inhibition (IC50) at human Nav1.5 is at least 3000 nM; against human Nav1.7 it was below 1000 nM.

Take `O=C(NC1COc2cccc(OC(F)(F)F)c2C1)c1cc2n(n1)CCC(c1ccccc1)O2` (stereo not shown) [Example 78]: the 50% inhibitory concentration (IC50) at human Nav1.5 is at least 3000 nM; against human Nav1.7 it was below 10000 nM.

For the compound `CCOc1cccc(CCNC(=O)c2cc3n(n2)CCC(c2ccccc2)O3)c1` (stereo not shown) [Example 79], the half-inhibitory concentration (IC50) is at least 3000 nM on human Nav1.5 and below 10000 nM against human Nav1.7.

On to `O=C(N[C@H]1COc2ccc(-c3ccncc3)cc2C1)c1cc2n(n1)CCC(c1ccccc1F)O2` (stereo partly shown) [Example 80], for which the results for the IC50 against human Nav1.5 and against human Nav1.7 were at least 3000 nM and below 1000 nM, respectively.

On to `O=C(N[C@H]1COc2ccc(-c3ccccn3)cc2C1)c1cc2n(n1)CCC(c1ccccc1F)O2` (stereo partly shown) [Example 81], for which the figures for the concentration for half-maximal inhibition (IC50) on human Nav1.5 and against human Nav1.7 were at least 3000 nM and below 1000 nM, respectively.

As to `CCOCc1ccc2c(c1)C[C@@H](NC(=O)c1cc3n(n1)CCC(c1ccccc1F)O3)CO2` (stereo partly shown) [Example 83], the half-maximal inhibitory concentration (IC50) at human Nav1.5 is 1000 to 3000 nM; at human Nav1.7, below 1000 nM.

For `O=C(N[C@H]1COc2ccc(COC3CCOCC3)cc2C1)c1cc2n(n1)CCC(c1ccccc1F)O2` (stereo partly shown) [Example 84], the 50% inhibitory concentration (IC50) on human Nav1.5 was at least 3000 nM; against human Nav1.7, below 10000 nM.

With `CC1CCn2nc(C(=O)N[C@H]3COc4ccc(Cl)cc4C3)cc2O1` (stereo partly shown) [Example 85], the half-inhibitory concentration (IC50) was at least 3000 nM against human Nav1.5 and below 1000 nM at human Nav1.7.

Consider `C[C@H]1CCn2nc(C(=O)N[C@H]3COc4ccc(Cl)cc4C3)cc2O1` [Example 86], for which the results for the IC50 on human Nav1.5 and against human Nav1.7 were at least 3000 nM and below 1000 nM, respectively.

As to `C[C@@H]1CCn2nc(C(=O)N[C@H]3COc4ccc(Cl)cc4C3)cc2O1` [Example 87], the figures for the IC50 against human Nav1.5 and against human Nav1.7 were at least 3000 nM and below 10000 nM, respectively.

Consider `CCC1CCn2nc(C(=O)N[C@H]3COc4ccc(Cl)cc4C3)cc2O1` (stereo partly shown) [Example 90], for which the IC50 is 1000 to 3000 nM on human Nav1.5 and below 1000 nM against human Nav1.7.

Consider `CCC1CCn2nc(C(=O)N[C@H]3COc4ccc(C#N)cc4C3)cc2O1` (stereo partly shown) [Example 91], for which the half-maximal inhibitory concentration (IC50) on human Nav1.5 is at least 3000 nM; against human Nav1.7, below 10000 nM.

Regarding `CCCC1CCn2nc(C(=O)N[C@H]3COc4ccc(C#N)cc4C3)cc2O1` (stereo partly shown) [Example 94], the values for the IC50 against human Nav1.5 and at human Nav1.7 were 1000 to 3000 nM and below 1000 nM, respectively.

Consider `N#Cc1ccc2c(c1)C[C@@H](NC(=O)c1cc3n(n1)CCC(CC1CC1)O3)CO2` (stereo partly shown) [Example 96], for which the results for the concentration for half-maximal inhibition (IC50) against human Nav1.5 and against human Nav1.7 were 1000 to 3000 nM and below 1000 nM, respectively.

For the compound `CCCOCC1CCn2nc(C(=O)N[C@H]3COc4ccc(C#N)cc4C3)cc2O1` (stereo partly drawn) [Example 100, N—((R)-6-cyanochroman-3-yl)-5-(propoxymethyl)-6,7-dihydro-5H-pyrazolo[5,1-b][1,3]oxazine-2-carboxamide], the figures for the 50% inhibitory concentration (IC50) against human Nav1.5 and against human Nav1.7 were at least 3000 nM and below 10000 nM, respectively.

`O=C(N[C@H]1COc2ccc(Cl)cc2C1)c1cc2n(n1)CCC(COCc1cccc(C(F)(F)F)n1)O2` (stereo partly shown) [Example 105]: the IC50 against human Nav1.5 and at human Nav1.7 was below 1000 nM each time.

With `O=C(N[C@H]1COc2ccc(CC(F)F)cc2C1)c1cc2n(n1)CCC(COCC1CC1)O2` (stereo partly shown) [Example 108], the figures for the IC50 at human Nav1.5 and on human Nav1.7 were 1000 to 3000 nM and below 1000 nM, respectively.

For the compound `O=C(N[C@H]1COc2ccc(-c3ccccn3)cc2C1)c1cc2n(n1)CCC(COCC1CC1)O2` (stereo partly shown) [Example 110], the IC50 is at least 3000 nM against human Nav1.5 and below 1000 nM against human Nav1.7.

As to `CC1(COCC2CCn3nc(C(=O)N[C@H]4COc5ccc(C#N)cc5C4)cc3O2)CC1` (stereo partly shown) [Example 112], the values for the IC50 against human Nav1.5 and at human Nav1.7 were at least 3000 nM and below 1000 nM, respectively.

For the compound `O=C(N[C@H]1COc2ccc(Cl)cc2C1)c1cc2n(n1)CCC(COc1ccccn1)O2` (stereo partly shown) [Example 117], the IC50 against human Nav1.5 and on human Nav1.7 was below 1000 nM in each case.

As to `N#Cc1ccc2c(c1)C[C@@H](NC(=O)c1cc3n(n1)CCC(COc1ccccc1)O3)CO2` (stereo partly shown) [Example 118], the IC50 on human Nav1.5 and on human Nav1.7 was below 1000 nM in each case.

Consider `O=C(N[C@H]1COc2ccc(Cl)cc2C1)c1cc2n(n1)CCC(CN1CCOCC1)O2` (stereo partly shown) [Example 122], for which the IC50 at human Nav1.5 is at least 3000 nM; against human Nav1.7, below 10000 nM.

Consider `CCOCC1CCn2nc(C(=O)N[C@H]3COc4ccc(-c5ccccn5)cc4C3)cc2O1` (stereo partly shown) [Example 123], for which the IC50 was at least 3000 nM against human Nav1.5 and below 10000 nM on human Nav1.7.

Turning to `CCOCC1CCn2nc(C(=O)N[C@H]3COc4ccc(-c5ccc(C#N)nc5)cc4C3)cc2O1` (stereo partly shown) [Example 125], the concentration for half-maximal inhibition (IC50) is at least 3000 nM against human Nav1.5 and below 10000 nM against human Nav1.7.

Take `O=C(N[C@H]1COc2ccc(CC(F)F)cc2C1)c1cc2n(n1)CCC(COCC(F)(F)F)O2` (stereo partly shown) [Example 126]: the figures for the IC50 against human Nav1.5 and against human Nav1.7 were 1000 to 3000 nM and below 1000 nM, respectively.

As to `O=C(N[C@H]1COc2ccc(-c3ccccn3)cc2C1)c1cc2n(n1)CCC(COCC(F)(F)F)O2` (stereo partly shown) [Example 130], the IC50 was at least 3000 nM at human Nav1.5 and below 10000 nM against human Nav1.7.

Values taken from patent publication US12421225B2, “Heteroaromatic amide derivative and medicament containing the same” (KAKEN PHARMACEUTICAL CO., LTD., priority 2018, dated 2025).
